# Assay results as given in patent US20070264287A1, “Methods for Increasing the Immune Response in an Animal” (priority 2004, published 2007).
# Tested on: NK cell activity
# Test: NK cell activity in old dogs fed a diet fortified with lipoic acid
# Type: in vivo
# Conditions: old beagles (Group 3, average age 11.3 years), dry food fortified with 150 ppm lipoic acid on a dry matter basis, six weeks, versus baseline and young and old controls; FIG. 1
# Excerpt: The dogs are beagles and Group 1 consists of 10 beagles with the average age of 5.1 years old, Group 2 consists of 10 beagles with an average age of 11.8 years old, and Group 3 consists of 10 beagles with an average age of 11.3 years old. The dogs from all three groups are fed the controlled food for a two week period prior to intervention. […] During the two week period on the control, samples are taken from all dogs and chemical and biological analysis is completed on the samples to establish base line data. Then three groups of dogs eat their respective diets for a six week period of time and after this time period, samples are taken from all of the dogs in the study and chemical and biological analysis is completed on the samples. Baseline data is compared to the data taken at the end of the six week study.
smiles,measurement,value
O=C(O)CCCC[C@@H]1CCSS1 (racemic) [lipoic acid],NK cell activity,increased NK cell activity
